Measured values from ChEMBL document CHEMBL1157884, “Synthesis and SAR of heterocyclic carboxylic acid isosteres based on 2-biarylethylimidazole as bombesin receptor subtype-3 (BRS-3) agonists for the treatment of obesity” (Bioorg Med Chem Lett, 2010).

Columns and labels:
[1] = molecular target: T1, Bombesin receptor subtype-3 (Homo sapiens) (UniProt P32247); assay: Agonist activity at human BRS3 relative to [D-Tyr6,b-Ala11,Phe13,Nle14]-Bombesin; format: functional
T1 sequence (whole entry): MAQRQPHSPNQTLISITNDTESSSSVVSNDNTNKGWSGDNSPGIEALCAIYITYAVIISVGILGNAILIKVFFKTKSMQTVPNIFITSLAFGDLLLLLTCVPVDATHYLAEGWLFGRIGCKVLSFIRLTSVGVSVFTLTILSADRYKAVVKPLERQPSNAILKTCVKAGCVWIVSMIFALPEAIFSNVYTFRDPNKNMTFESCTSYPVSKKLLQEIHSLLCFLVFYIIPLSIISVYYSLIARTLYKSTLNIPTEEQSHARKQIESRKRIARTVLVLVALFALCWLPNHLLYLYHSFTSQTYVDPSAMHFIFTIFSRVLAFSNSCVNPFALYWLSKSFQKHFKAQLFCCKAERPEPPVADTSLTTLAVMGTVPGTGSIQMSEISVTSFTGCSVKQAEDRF

[2] = molecular target: T2, Bombesin receptor subtype-3 (Mus musculus, UniProt O54798); assay: Agonist activity at mouse BRS3; format: functional
T2 sequence (O54798 whole entry): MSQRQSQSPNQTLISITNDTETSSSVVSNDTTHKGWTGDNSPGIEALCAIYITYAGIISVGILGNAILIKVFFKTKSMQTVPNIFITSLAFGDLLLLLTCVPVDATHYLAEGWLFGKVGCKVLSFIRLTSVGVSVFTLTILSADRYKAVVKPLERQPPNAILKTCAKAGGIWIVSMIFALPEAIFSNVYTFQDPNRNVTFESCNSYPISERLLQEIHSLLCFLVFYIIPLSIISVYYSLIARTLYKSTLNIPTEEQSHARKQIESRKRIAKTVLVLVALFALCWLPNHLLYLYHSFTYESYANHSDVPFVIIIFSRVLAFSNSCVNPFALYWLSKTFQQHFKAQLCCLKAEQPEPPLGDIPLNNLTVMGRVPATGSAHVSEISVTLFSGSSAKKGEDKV

[3] = molecular target: T3, Bombesin receptor subtype-3 (Mus musculus) (UniProt O54798); assay: Agonist activity at mouse BRS3 relative to [D-Tyr6,b-Ala11,Phe13,Nle14]-Bombesin; format: functional
T3 sequence (whole entry): T2 sequence (O54798 whole entry)

[4] = molecular target: T4, Bombesin receptor subtype-3 (Homo sapiens, UniProt P32247); assay: Agonist activity at human BRS3; format: functional
T4 sequence (P32247 whole entry): T1 sequence (whole entry)

[5] = Total plasma concentration in rat at 2 mg/kg, iv after 1 hr; format: ADME, organism-based; parameters: dose 2 mg/kg, route intravenous
[6] = Ratio of drug level in brain to plasma in rat at 2 mg/kg, iv after 1 hr; format: ADME, organism-based; parameters: dose 2 mg/kg, route intravenous
[7] = Drug level in rat brain at 2 mg/kg, iv after 1 hr; format: ADME, organism-based; parameters: dose 2 mg/kg, route intravenous; conditions: read-out: Drug uptake
[8] = molecular target: T4, Bombesin receptor subtype-3; assay: Binding affinity to human BRS3
[9] = Total plasma concentration in rat at 1 mg/kg, iv after 1 hr; format: ADME, organism-based; parameters: dose 1 mg/kg, route intravenous
[10] = Drug level in rat brain at 1 mg/kg, iv after 1 hr; format: ADME, organism-based; parameters: dose 1 mg/kg, route intravenous; conditions: read-out: Drug uptake
[11] = Ratio of drug level in brain to plasma in rat at 1 mg/kg, iv after 1 hr; format: ADME, organism-based; parameters: dose 1 mg/kg, route intravenous
[12] = Oral bioavailability in rat; format: ADME, organism-based; conditions: in vivo

SMILES: CCC(C)(C)Cc1c[nH]c(CCc2ccc(-c3ccccc3OCc3nnn[nH]3)cc2)n1
- Activity [1]: 111%
- EC50 [2]: 2.9 nM
- Activity [3]: 109%
- EC50 [4]: 30 nM
- concentration at 1 h [5]: 1250 nM
- Kp at 1 h [6]: 0.01
- concentration at 1 h [7]: 10 nM

SMILES: CCC(C)(C)Cc1c[nH]c(CCc2ccc3c(c2)CNC(=O)c2ccccc2-3)n1
- Activity [1]: 98%
- Activity [3]: 118%

SMILES: c1ccc(-c2nnn[nH]2)c(-c2ccc(CCc3ncc(CC4CCCC4)[nH]3)cc2)c1
- IC50 [8]: 15 nM
- EC50 [2]: 16 nM
- EC50 [4]: 56 nM

SMILES: CCC(C)(C)Cc1c[nH]c(CCc2ccc(-c3ccccc3OCc3nc(N)n[nH]3)cc2)n1
- concentration at 1 h [9]: 860 nM
- IC50 [8]: 27 nM
- Activity [1]: 98%
- EC50 [2]: 4.6 nM
- Activity [3]: 115%
- EC50 [4]: 78 nM
- concentration at 1 h [10]: 10 nM
- Kp at 1 h [11]: 0.016

SMILES: CCC(C)(C)Cc1c[nH]c(CCc2ccc(-c3ccccc3OCc3nc(=O)[nH][nH]3)cc2)n1
- Activity [1]: 107%

SMILES: CCC(C)(C)Cc1cnc(CCc2ccc(-c3ccccc3OCC(=O)O)cc2)[nH]1
- IC50 [8]: 103 nM
- EC50 [4]: 54 nM

SMILES: CCC(C)(C)Cc1c[nH]c(CCc2ccc(-c3ccccc3OCc3nnc[nH]3)cc2)n1
- IC50 [8]: 22 nM
- EC50 [4]: 172 nM

SMILES: CCC(C)(C)Cc1c[nH]c(CCc2ccc(-c3ccccc3OCc3ncn[nH]3)cc2)n1
- Activity [1]: 113%

SMILES: CCC(C)(C)Cc1cnc(CCc2ccc(-c3ccccc3OCc3n[nH]c(=O)[nH]3)cc2)[nH]1
- IC50 [8]: 31 nM
- EC50 [4]: 336 nM

SMILES: CCC(C)(C)Cc1c[nH]c(CCc2ccc(-c3ccccc3OCC(=O)O)cc2)n1
- Activity [1]: 97%

SMILES: CCC(C)(C)Cc1cnc(CCc2ccc3c(c2)CNC(=O)c2ccccc2-3)[nH]1
- concentration at 1 h [9]: 310 nM
- IC50 [8]: 10 nM
- EC50 [2]: 11 nM
- EC50 [4]: 29 nM
- concentration at 1 h [10]: 20 nM
- Kp at 1 h [11]: 0.068

SMILES: O=C1NC(=O)C(c2ccccc2-c2ccc(CCC3N=CC(CC4CCCC4)=N3)cc2)S1 (stereo unspecified)
- IC50 [8]: 287 nM
- Activity [1]: 94%
- EC50 [4]: 1770 nM

SMILES: CCC(C)(C)Cc1c[nH]c(CCc2ccc(-c3ccccc3OCc3cnn[nH]3)cc2)n1
- Activity [1]: 97%

SMILES: CCC(C)(C)Cc1c[nH]c(CCc2ccc(-c3ccccc3OCc3nc(C(F)(F)F)n[nH]3)cc2)n1
- IC50 [8]: 127 nM
- Activity [1]: 89%
- EC50 [2]: 12 nM
- Activity [3]: 122%
- EC50 [4]: 129 nM

SMILES: CCC(C)(C)Cc1c[nH]c(CCc2ccc(N3CCCC[C@@H]3C(=O)O)cc2)n1
- concentration at 1 h [9]: 210 nM
- IC50 [8]: 5.3 nM
- Activity [1]: 100%
- EC50 [2]: 12 nM
- Activity [3]: 111%
- EC50 [4]: 24 nM
- concentration at 1 h [10]: 10 nM
- Kp at 1 h [11]: 0.04

SMILES: CCC(C)(C)Cc1c[nH]c(CCc2ccc3c(c2)CN(C)C(=O)c2ccccc2-3)n1
- Activity [1]: 96%
- Activity [3]: 119%

SMILES: CCC(C)(C)Cc1c[nH]c(CCc2ccc(N3CCCC[C@@H]3c3ncn[nH]3)cc2)n1
- Activity [1]: 96%
- Activity [3]: 117%

SMILES: CCC(C)(C)Cc1c[nH]c(CCc2ccc(-c3ccccc3OCc3nc(=S)[nH][nH]3)cc2)n1
- concentration at 1 h [9]: 4960 nM
- IC50 [8]: 6.1 nM
- Activity [1]: 114%
- EC50 [2]: 5.8 nM
- Activity [3]: 120%
- EC50 [4]: 41 nM
- concentration at 1 h [10]: 30 nM
- Kp at 1 h [11]: 0.006

SMILES: CCC(C)(C)Cc1c[nH]c(CCc2ccc(N3CCCC[C@@H]3c3nnn[nH]3)cc2)n1
- IC50 [8]: 6.2 nM
- Activity [1]: 100%
- EC50 [2]: 16 nM
- Activity [3]: 119%
- EC50 [4]: 15 nM
- bioavailability [12]: 4.9%

SMILES: CCC(C)(C)Cc1c[nH]c(CCc2ccc(-c3ccccc3O)cc2)n1
- IC50 [8]: 31 nM
- Activity [1]: 97%
- EC50 [2]: 34 nM
- Activity [3]: 113%
- EC50 [4]: 133 nM

SMILES: CCC(C)(C)Cc1c[nH]c(CCc2ccc(N3CCCc4cn[nH]c43)cc2)n1
- Activity [1]: 101%
- EC50 [2]: 13 nM
- Activity [3]: 120%
- EC50 [4]: 42 nM
- bioavailability [12]: 29%

SMILES: CCC(C)(C)Cc1cnc(CCc2ccc(-c3ccccc3OCc3cnn[nH]3)cc2)[nH]1
- IC50 [8]: 83 nM
- EC50 [4]: 399 nM

SMILES: CCC(C)(C)Cc1cnc(CCc2ccc3c(c2)CN(C)C(=O)c2ccccc2-3)[nH]1
- IC50 [8]: 20 nM
- EC50 [2]: 27 nM
- EC50 [4]: 56 nM

SMILES: c1ccc(-c2nnn[nH]2)c(-c2ccc(CCc3nc(CC4CCCC4)c[nH]3)cc2)c1
- Activity [1]: 112%
- Activity [3]: 85%

SMILES: CCC(C)(C)Cc1cnc(CCc2ccc(N3CCCC[C@@H]3c3nnc[nH]3)cc2)[nH]1
- IC50 [8]: 26 nM
- EC50 [2]: 13 nM
- EC50 [4]: 42 nM
- bioavailability [12]: 4.8%
